# Source: EP2204363A1, “New disubstituted phenylpiperidines/piperazines as modulators of dopamine neurotransmission” (NSAB, Filial af NeuroSearch Sweden AB, Sverige, priority 2004, dated 2005)
# Where two headings read alike, the source gives them in different places.
# Key:
# [1] = Activity of compounds of Formula 1 (test not specified)
# [2] = tested on: DOPAC (3,4-dihydroxyphenylacetic acid) in the rat striatum; test: In vivo neurochemistry: increase of DOPAC in the rat striatum; conditions: for ED50: read-out: ED50 DOPAC
# From the text: After the behavioural activity sessions, the rats were decapitated and their brains rapidly taken out and put on an ice-cold petri-dish. The limbic forebrain, the striatum, the frontal cortex and the remaining hemispheral parts of each rat were dissected and frozen. Each brain part was subsequently analyzed with respect to its content of monoamines and their metabolites.
# The monoamine transmitter substances (NA (noradrenaline), DA (dopamine), 5-HT (serotonin)) as well as their amine (NM (normethanephrine), 3-MT (3-methoxytyramine)) and acid (DOPAC (3,4-dihydroxyphenylacetic acid), 5-HIAA (5-hydroxyindoleacetic acid), HVA (homovanillic acid)) metabolites are quantified in brain tissue homogenates by HPLC separations and electrochemical detection
# The analytical method is based on two chromatographic separations dedicated for amines or acids. Two chromatographic systems share a common auto injector with a 10-port valve and two sample loops for simultaneous injection on the two systems. Both systems are equipped with a reverse phase column (Luna C18(2), dp […], 50*2mm i.d., Phenomenex) and electrochemical detection is accomplished at two potentials on glassy carbon electrodes (MF-1000, Bioanalytical Systems, Inc.). The column effluent is passed via a T-connection to the detection cell or to a waste outlet. This is accomplished by two solenoid valves, which block either the waste or detector outlet. By preventing the chromatographic front from reaching the detector, better detection conditions are achieved. […] Detection potentials relative to Ag/AgCl reference are 0.45 and 0.60V. […] Detection potentials relative to Ag/AgCl reference are 0.45 and 0.65V.
# ED50 values for the increase of DOPAC in striatum are calculated by curve fitting.
# [3] = tested on: MK-801 pre-treated rats; test: In vivo behaviour: locomotor activity in MK-801 pre-treated rats; conditions: MK-801 0.7 mg/kg i.p. 90 minutes before test compound, 30 to 60 minutes after administration, ± SEM
# From the text: (§1) Photobeam sensors were spaced 2.5 cm apart.
# [4] = Metabolic stability in rat liver microsomes; assay type: in vitro ADME; conditions: pH 7.4, 37 °C, NADPH, fraction of test compound eliminated after 15 minutes, read-out: turnover at 15 minutes
# Procedure: The protein precipitation was then removed by rejecting the pellet after centrifugation at 10.000 g for 10 minutes (Heraeus, Biofuge fresco) in 4°C. The test compound was analysed using HPLC-MS (Hewlett-Packard 1100MSD Series) with a Zorbax SB-C18 column (2.1*150 mm, 5 µm) using 0.03% formic acid and acetonitrile as mobile phase (gradient) or a Zorbax Eclipse XDB-C18 (3*75 mm, 3.5µm) using 0.03% acetic acid and acetonitrile as mobile phase (gradient).
# [5] = tested on: drug-naive rats; test: In vivo behaviour: locomotor activity in drug-naive rats; conditions: ± SEM
# From the text: as §1
# [6] = tested on: levels of dopamine and norepinephrine in the cortex; test: Microdialysis in awake and freely moving rats (cortex); assay type: in vivo; conditions: percent of control in relation to baseline
# [7] = sc, estimated ED50 on increase of DOPAC in rat striatum after systemic administration (s.c.), maximal effects limited to 350 - 400% of control, range covers 95% of fits
# [8] = drug-naive habituated rats, 11 µmol/kg, recorded between 30 and 60 minutes
# [9] = drug-naive habituated rats, 33 µmol/kg, recorded between 30 and 60 minutes
# [10] = drug-naive habituated rats, 100 µmol/kg, recorded between 30 and 60 minutes
# [11] = drug-naive rats, 11 µmol/kg, recorded for 60 minutes
# [12] = drug-naive rats, 33 µmol/kg, recorded for 60 minutes
# [13] = drug-naive rats, 100 µmol/kg, recorded for 60 minutes
Structure (SMILES),"ED50 [2, 7] [µmol/kg]","Locomotor activity [5, 11] [counts/60 min]","Locomotor activity [5, 12] [counts/60 min]","Locomotor activity [5, 13] [counts/60 min]",other results
CCCN1CCC(c2cccc(S(C)(=O)=O)c2C(F)(F)F)CC1 [4-[3-(methylsulfonyl)-2-(trifluoromethyl)phenyl]-1-propylpiperidine],,,,,activity [1]: inactive
"CCCN1CCC(c2cccc(S(C)(=O)=O)c2F)CC1 [Example 1, 4-[2-FLUORO-3-(METHYLSULFONYL)PHENYL]-1-PROPYLPIPERIDINE]",28,9500 ± 617,7371 ± 992,8103 ± 1047,"Locomotor activity, MK + example ([3]; 33 µmol/kg): 29636 ± 10019 (P=0.08) counts/30 min; metabolised at 0.25 h [4]: 3%; Locomotor activity [5, 8]: 1708 ± 922 counts/30 min; Locomotor activity [5, 9]: 1337 ± 141 (P=0.001) counts/30 min; Locomotor activity [5, 10]: 1365 ± 460 (P=0.057) counts/30 min"
"CCN1CCC(c2cccc(S(C)(=O)=O)c2F)CC1 [Example 2, 1-ETHYL-4-[2-FLUORO-3-(METHYLSULFONYL)PHENYL]-PIPERIDINE]",,,,,"metabolised at 0.25 h [4]: 1%; levels of dopamine and norepinephrine in the cortex ([6]; Figure 2: 50 mol/kg s.c. (so in the source), pf. cortex): elevate the levels of dopamine and norepinephrine in the cortex"
"CCCN1CCC(c2cccc(S(C)(=O)=O)c2Cl)CC1 [Example 3, 4-[2-CHLORO-3-(METHYLSULFONYL)PHENYL]-1-PROPYLPIPERIDINE]",9.9,6078 ± 605,3023 ± 246,1327 ± 299,"Locomotor activity, MK + example ([3]; 100 µmol/kg (footnote 1)): 4911 ± 2953^1 (P=0.08) counts/30 min"
"CCCN1CCC(c2cccc(S(C)(=O)=O)c2C)CC1 [Example 4, 4-[2-METHYL-3-(METHYLSULFONYL)PHENYL]-1-PROPYLPIPERIDINE]",58,8972 ± 1124,9023 ± 1415,4473 ± 924,metabolised at 0.25 h [4]: 4%
"CCCN1CCC(c2cccc(C(F)(F)F)c2C#N)CC1 [Example 7, 2-(1-PROPYLPIPERIDIN-4-YL)-6-(TRIFLUOROMETHYL)BENZONITRILE]",9.7,7008 ± 700,4694 ± 986,2829 ± 358,metabolised at 0.25 h [4]: 22%
"CCCN1CCC(c2cccc(C(F)(F)F)c2OC)CC1 [Example 8, 4-[2-METHOXY-3-(TRIFLUOROMETHYL)PHENYL]-1-PROPYLPIPERIDINE]",,,,,metabolised at 0.25 h [4]: 49%
"CCCN1CCC(c2ccc(Cl)c(C(F)(F)F)c2)CC1 [Example 9 of WO01/46146, reference compound]",,,,,ED50 ([2]; Rattus norvegicus): 40 µmol/kg
"CCCN1CCN(c2cccc(C(F)(F)F)c2F)CC1 [Example 9, 1-[2-FLUORO-3-(TRIFLUOROMETHYL)PHENYL]-4-PROPYLPIPERAZINE]",,3721 ± 242,3518 ± 435,4265 ± 758,"ED50 ([2]; Rattus norvegicus, sc): 1.9 µmol/kg; Locomotor activity, MK + example ([3]; 11 µmol/kg (footnote 2)): 5916± 1918^2 (P=0.002) counts/30 min"
"COCCN1CCN(c2cccc(C(F)(F)F)c2F)CC1 [Example 10, 1-[2-FLUORO-3-(TRIFLUOROMETHYL)PHENYL]-4-(2-METHOXYETHYL)PIPERAZINE]",,,,,"ED50 ([2]; Rattus norvegicus, sc): 6.2 µmol/kg"
"CCCN1CCN(c2cccc(Cl)c2Cl)CC1 [Example 11, 1-(2,3-DICHLOROPHENYL)-4-PROPYLPIPERAZINE]",,5149 ± 374,4032 ± 828,3299 ± 637,"ED50 ([2]; Rattus norvegicus, sc): 3.5 µmol/kg"
"CCN1CCC(c2cccc(S(C)(=O)=O)c2)CC1 [Example 12 of WO01/46145, reference compound]",154,,,,
"CCCN1CCC(c2cccc(C#N)c2C(F)(F)F)CC1 [Example 13, 3-(1-PROPYLPIPERIDIN-4-YL)-2-(TRIFLUORO-METHYL)BENZONITRILE]",,,,,"Locomotor activity [5, 8]: 960 ± 710 counts/30 min; Locomotor activity [5, 9]: 2870 ± 613 (P=0.008) counts/30 min; Locomotor activity [5, 10]: 4366 ± 1389 (P=0.030) counts/30 min"
"CCCN1CCN(c2cccc(C#N)c2C(F)(F)F)CC1 [Example 14, 3-(4-PROPYLP I PE RAZI N-1-YL)-2-(TRI FLUORO-M ETHYL)B ENZON ITRI LE]",,,,,"ED50 ([2]; Rattus norvegicus, sc): 2.4 µmol/kg"
"CCCN1CCC(c2cccc(S(C)(=O)=O)c2C#N)CC1 [Example 15, 2-(METHYLSULFONYL)-6-(1-PROPYLPIPERIDIN-4-YL)BENZONITRILE]",28,,,,
"CCCN1CCC(c2ccc(F)c(C(F)(F)F)c2)CC1 [Example 43 of WO01/46146, reference compound]",,,,,"ED50 ([2]; estimated ED50 on increase of DOPAC in rat striatum, maximal effects set to 200% of control, range covers 95% of fits): 35 µmol/kg"
"CN1CCN2c3ncccc3Cc3ccccc3C2C1 (stereo not drawn) [mirtazapine, reference compound]",,,,,"extracellullar norepinephrine and dopamine in the cortex ([6]; Figure 1: Remeron 10mg/kg s.c., cortex): increase predominantly extracellullar norepinephrine and dopamine in the cortex"
CCCN1CCC(c2cccc(C(F)(F)F)c2)CC1 [reference compound],,,,,"ED50 DOPAC ([2]; estimated ED50 on increase of DOPAC in rat striatum after systemic administration (s.c.), maximal effects limited to 350 - 400% of control, range covers 95% of fits): 84 (47 - 110) µmol/kg"
